In patent US20240327393A1 (SIRONAX LTD., priority 2021, published 2024):

system: HT-1080 (ATCC, CCL-121) cells; experiment: HT-1080 cell viability assay with ferroptosis inducer RSL3 (Cell Titer-Glo); type: cell-based; conditions: HT-1080 cells treated with RSL3; 3-fold, 10-point dilution, 1.1 μM highest concentration; Table 2; read-out: EC50 (nM), ferroptosis inhibitory activity
In short: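 EC50 was derived by sigmoidal dose-response regression of CellTiter-Glo luminescence viability, expressed relative to untreated wells. Compounds were tested in a ten-point, threefold dilution series (highest 1.1 μM) in the presence of the ferroptosis inducer RSL3. HT-1080 cells had been seeded at 6000 per well and grown overnight first.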

EC50	Structure (SMILES)
0.1 to 100 nM	CC1CN(c2ccc(Nc3ccc4c(c3)OC(C)C(=O)N4)cc2)CC(C)O1 (centres unmarked) [Compound 144, 7-((4-(2,6-dimethylmorpholino)phenyl)amino)-2-methyl-2H-benzo[b][1,4]oxazin-3(4H)-one]

same assay, conditions: Homo sapiens; HT-1080 cells treated with RSL3; 3-fold, 10-point dilution, 1.1 μM highest concentration; Table 2; read-out: EC50 (nM), ferroptosis inhibitory activity

Structure (SMILES)	EC50
O=C1COc2cc(Nc3ccc(N4CCC(C(F)(F)F)CC4)cc3)ccc2N1 [Compound 85, 7-((4-(4-(trifluoromethyl)piperidin-1-yl)phenyl)amino)-2H-benzo[b][1,4]oxazin-3(4H)-one]	0.1 to 100 nM
CNCCCN1C(=O)COc2cc(Nc3ccc(N4CC(C)OC(C)C4)cc3)ccc21 (centres unmarked) [Compound 45, 7-((4-(2,6-dimethylmorpholino)phenyl)amino)-4-(3-(methylamino)propyl)-2H-benzo[b][1,4]oxazin-3(4H)-one]	0.1 to 100 nM
CN1CC(=O)N(C)c2ccc(Nc3ccc(N4CCC(C(F)(F)F)CC4)cc3)cc21 [Compound 109, 1,4-dimethyl-6-((4-(4-(trifluoromethyl)piperidin-1-yl)phenyl)amino)-3,4-dihydroquinoxalin-2(H)-one]	0.1 to 100 nM
Cc1cc(N2CC(C)OC(C)C2)ccc1Nc1ccc2c(c1)CN(C)C2 (centres unmarked) [Compound 439, N-(4-(2,6-dimethylmorpholino)-2-methylphenyl)-2-methylisoindolin-5-amine]	0.1 to 100 nM
Cn1nnc2ccc(Nc3ccc(N4CCC(C(F)(F)F)CC4)cc3)cc21 [Compound 314, 1-methyl-N-(4-(4-(trifluoromethyl)piperidin-1-yl)phenyl)-1H-benzo[d][1,2,3]triazol-6-amine]	0.1 to 100 nM
CN1Cc2ccc(Nc3ccc(N4CCC(C(F)(F)F)CC4)cc3)cc2C1=O [Compound 171, 2-methyl-6-((4-(4-(trifluoromethyl)piperidin-1-yl)phenyl)amino) isoindolin-1-one]	0.1 to 100 nM
FC(F)(F)C1CCN(c2ccc(Nc3ccc4occc4c3)cc2)CC1 [Compound 337, N-(4-(4-(trifluoromethyl)piperidin-1-yl)phenyl)benzofuran-5-amine]	0.1 to 100 nM
CNCCN1C(=O)COc2cc(Nc3ccc(C4CC(C)OC(C)C4)cc3)ccc21 (centres unmarked) [Compound 54, 7-((4-(2,6-dimethyltetrahydro-2H-pyran-4-yl)phenyl)amino)-4-(2-(methylamino)ethyl)-2H-benzo[b][1,4]oxazin-3(4H)-one]	0.1 to 100 nM
Cc1cc(Nc2ccc3c(c2)OCC(=O)N3C)cnc1N1CCC(C(F)(F)F)CC1 [Compound 142, 4-methyl-7-((5-methyl-6-(4-(trifluoromethyl)piperidin-1-yl)pyridin-3-yl)amino)-2H-benzo[b][1,4]oxazin-3(4H)-one]	0.1 to 100 nM
CN1CCN(CC(=O)N2CCc3cc(Nc4ccc(N5CCCCC5)cc4)ccc3C2)CC1 [Compound 103, 2-(4-methylpiperazin-1-yl)-1-(6-((4-(piperidin-1-yl)phenyl)amino)-3,4-dihydroisoquinolin-2(1H)-yl)ethan-1-one]	100 to 1000 nM
NC(=O)NCCn1c(=O)oc2ccc(Nc3ccc(N4CCC(C(F)(F)F)CC4)cc3)cc21 [Compound 417, 1-(2-(2-oxo-5-((4-(4-(trifluoromethyl)piperidin-1-yl)phenyl)amino)benzo[d]oxazol-3(2H)-yl)ethyl)urea]	0.1 to 100 nM

Continued, values first:

EC50	Structure (SMILES)
0.1 to 100 nM	Cn1ccc2cc(Nc3ccc4c(c3)n(C)c(=O)n4C)ccc21 [Compound 266, 1,3-dimethyl-5-((1-methyl-1H-indol-5-yl)amino)-1,3-dihydro-2H-benzo[d]imidazol-2-one]
0.1 to 100 nM	Cn1c(N)nc2cc(Nc3ccc(N4CCC(C(F)(F)F)CC4)cc3)ccc21 [Compound 370, 1-methyl-N^5-(4-(4-(trifluoromethyl)piperidin-1-yl)phenyl)-1H-benzo[d]imidazole-2,5-diamine]
0.1 to 100 nM	Cn1c(=O)oc2cc(Nc3ccc4c(c3)n(C)c(=O)n4C)ccc21 [Compound 344, 6-((1,3-dimethyl-2-oxo-2,3-dihydro-1H-benzo[d]imidazol-5-yl)amino)-3-methylbenzo[d]oxazol-2(3H)-one]
0.1 to 100 nM	CN1Cc2cc(Nc3ccc(Oc4ccc(Cl)cc4)cc3)ccc2C1=O [Compound 232, 5-((4-(4-chlorophenoxy)phenyl)amino)-2-methylisoindolin-1-one]
0.1 to 100 nM	CCCCCc1ccc(Nc2ccc3c(c2)OCC(=O)N3C)cc1 [Compound 6, 4-methyl-7-((4-pentylphenyl)amino)-2H-benzo[b][1,4]oxazin-3(4H)-one]
0.1 to 100 nM	CN(C)CCn1c(=O)n(C)c2cc(Nc3ccc(N4CCC(C(F)(F)F)CC4)cc3)ccc21 [Compound 355, 1-(2-(dimethylamino)ethyl)-3-methyl-5-((4-(4-(trifluoromethyl)piperidin-1-yl)phenyl)amino)-1,3-dihydro-2H-benzo[d]imidazol-2-one]
0.1 to 100 nM	CC1CN(c2ccc(Nc3ccc4c(c3)n(C)c(=O)n4C)cc2)CC(C)O1 (centres unmarked) [Compound 279, 5-((4-(2,6-dimethylmorpholino)phenyl)amino)-1,3-dimethyl-1,3-dihydro-2H-benzo[d]imidazol-2-one]
0.1 to 100 nM	CN1Cc2cc(Nc3ccc4c(c3)OCCO4)ccc2C1=O [Compound 229, 5-((2,3-dihydrobenzo[b][1,4]dioxin-6-yl)amino)-2-methylisoindolin-1-one]
0.1 to 100 nM	CCC(C)(C)c1ccc(Nc2ccc3c(c2)OCC(=O)N3C)cc1 [Compound 38, 4-methyl-7-((4-(tert-pentyl)phenyl)amino)-2H-benzo[b][1,4]oxazin-3(4H)-one]
0.1 to 100 nM	Cc1c(N2CCC(C)CC2)ccc(Nc2ccc3c(c2)n(C)c(=O)n3C)c1F [Compound 263, 5-((2-fluoro-3-methyl-4-(4-methylpiperidin-1-yl)phenyl)amino)-1,3-dimethyl-1,3-dihydro-2H-benzo[d]imidazol-2-one]
0.1 to 100 nM	Cc1cc(N2CC(C)OC(C)C2)ccc1Nc1ccc2c(cnn2C)c1 (centres unmarked) [Compound 437, N-(4-(2,6-dimethylmorpholino)-2-methylphenyl)-1-methyl-1H-indazol-5-amine]
100 to 1000 nM	CCN(CCC(=O)OC)c1ccc(Nc2ccc3c(c2)n(C)c(=O)n3C)cc1 [Compound 361, methyl 3-((4-((1,3-dimethyl-2-oxo-2,3-dihydro-1H-benzo[d]imidazol-5-yl)amino)phenyl)(ethyl)amino)propanoate]
0.1 to 100 nM	Cc1ccc(Cl)c(Nc2ccc3c(c2)CN(C)C3=O)c1 [Compound 230, 5-((2-chloro-5-methylphenyl)amino)-2-methylisoindolin-1-one]
0.1 to 100 nM	Cn1c(=O)cnc2cc(Nc3ccc(N4CCC(C(F)(F)F)CC4)cc3)ccc21 [Compound 111, 1-methyl-6-((4-(4-(trifluoromethyl)piperidin-1-yl)phenyl)amino) quinoxalin-2(1H)-one]

same assay, conditions: Homo sapiens; HT-1080 cells treated with RSL3; 3-fold, 10-point dilution, 1.1 μM highest concentration; Table 3; read-out: EC50 (nM), ferroptosis inhibitory activity

EC50	Structure (SMILES)
0.1 to 100 nM	C[C@@H]1C[C@H](c2ccc(Nc3ccc4c(c3)OCC(=O)N4)cc2)CCO1 [Compound 484, 7-((4-((2R,4R)-2-methyltetrahydro-2H-pyran-4-yl)phenyl)amino)-2H-benzo[b][1,4]oxazin-3(4H)-one]
0.1 to 100 nM	O=C1COc2cc(Nc3ccc(N4CCC(F)(F)CC4)cc3)ccc2N1 [Compound 524, 7-((4-(4,4-difluoropiperidin-1-yl)phenyl)amino)-2H-benzo[b][1,4]oxazin-3(4H)-one]
0.1 to 100 nM	Cc1cc(N2CCCCC2)ccc1Nc1ccc2c(c1)OCC(=O)N2C [Compound 506]
0.1 to 100 nM	O=C1COc2cc(Nc3ccc(N4CCC(C(F)(F)F)CC4)cc3)cc(F)c2N1 [Compound 619, 5-fluoro-7-({4-[4-(trifluoromethyl)piperidin-1-yl]phenyl}amino)-2,4-dihydro-1,4-benzoxazin-3-one]
0.1 to 100 nM	O=C1COc2cc(Nc3ccc(N4CCC(C(F)(F)F)CC4)cc3Cl)ccc2N1 [Compound 448, 7-({2-chloro-4-[4-(trifluoromethyl)piperidin-1-yl]phenyl}amino)-2,4-dihydro-1,4-benzoxazin-3-one]
100 to 1000 nM	CN1C(=O)COc2cc(N(C)c3ccc(N4CCC(C(F)(F)F)CC4)cc3)ccc21 [Compound 532, 4-methyl-7-(methyl(4-(4-(trifluoromethyl)piperidin-1-yl)phenyl)amino)-2H-benzo[b][1,4]oxazin-3(4H)-one]
100 to 1000 nM	Cc1cc(N2CCC(C)(O)CC2)ccc1Nc1ccc2c(c1)OCC(=O)N2 [Compound 541, 7-((4-(4-hydroxy-4-methylpiperidin-1-yl)-2-methylphenyl)amino)-2H-benzo[b][1,4]oxazin-3(4H)-on]
0.1 to 100 nM	Cc1cc(N2CCC(C(F)(F)F)CC2)ccc1Nc1ccc2c(c1)OCCC(=O)N2C [Compound 594, 5-methyl-8-((2-methyl-4-(4-(trifluoromethyl)piperidin-1-yl)phenyl)amino)-2,3-dihydrobenzo[b][1,4]oxazepin-4(5H)-one]
0.1 to 100 nM	Cc1cc(N2CCC(C(F)(F)F)CC2)ccc1Nc1ccc2ncc(C(N)=O)n2c1 [Compound 630, 6-((2-methyl-4-(4-(trifluoromethyl)piperidin-1-yl)phenyl)amino) imidazo[1,2-a]pyridine-3-carboxamide]
0.1 to 100 nM	Cc1cc(N2CCC(C(F)(F)F)CC2)ccc1Nc1ccc2oc(=O)[nH]c2c1 [Compound 467, 5-((2-methyl-4-(4-(trifluoromethyl)piperidin-1-yl)phenyl)amino) benzo[d]oxazol-2(3H)-one]
0.1 to 100 nM	Cc1cc(N2CCC(C(F)(F)F)CC2)ccc1Nc1ccc2c(c1)OCC(=O)NC2 [Compound 608, 8-((2-methyl-4-(4-(trifluoromethyl)piperidin-1-yl)phenyl)amino)-4,5-dihydrobenzo[f][1,4]oxazepin-3(2H)-one]
0.1 to 100 nM	CCc1nc(N2C[C@@H](C)O[C@@H](C)C2)ccc1Nc1ccc2c(c1)OCC(=O)N2 [Compound 522, 7-((6-((2S,6R)-2,6-dimethylmorpholino)-2-ethylpyridin-3-yl)amino)-2H-benzo[b][1,4]oxazin-3(4H)-one]
